These are literature values, as cited in patent US7442682B2, “Transepithelial delivery of peptides with incretin hormone activities” (Nitto Denko Corporation, priority 2004, dated 2008).

For data set [1] the following is noted: in vivo.
The next data set relates to β-cells. The following applies: insulinotropic effect; read-out: half-maximal effective concentration on β-cells.
A further data set relates to fasting blood glucose. The following applies: type 2 diabetes patients, pump infusion for 6 weeks, mainly within first week.

In the case of `CCCCCCCCCCCCCCCC(=O)N[C@@H](CCC(=O)NCCCC[C@H](NC(=O)[C@H](C)NC(=O)[C@H](C)NC(=O)[C@H](CCC(N)=O)NC(=O)CNC(=O)[C@H](CCC(=O)O)NC(=O)[C@H](CC(C)C)NC(=O)[C@H](Cc1ccc(O)cc1)NC(=O)[C@H](CO)NC(=O)[C@H](CO)NC(=O)[C@@H](NC(=O)[C@H](CC(=O)O)NC(=O)[C@H](CO)NC(=O)[C@@H](NC(=O)[C@H](Cc1ccccc1)NC(=O)[C@@H](NC(=O)CNC(=O)[C@H](CCC(=O)O)NC(=O)[C@H](C)NC(=O)[C@@H](N)Cc1cnc[nH]1)[C@@H](C)O)[C@@H](C)O)C(C)C)C(=O)N[C@@H](CCC(=O)O)C(=O)N[C@@H](Cc1ccccc1)C(=O)N[C@H](C(=O)N[C@@H](C)C(=O)N[C@@H](Cc1c[nH]c2ccccc12)C(=O)N[C@@H](CC(C)C)C(=O)N[C@H](C(=O)N[C@@H](CCCNC(=N)N)C(=O)NCC(=O)N[C@@H](CCCNC(=N)N)C(=O)NCC(=O)O)C(C)C)[C@@H](C)CC)C(=O)O` [Liraglutide], the “half-life relative to exendin-4” value in data set [1] is recorded as “more than 10 fold”.
Regarding “GLP-1: glucagon-like peptide-1, human incretin hormone”, the EC50 with β-cells is 0.01 nM. In addition, the “lowering of fasting blood glucose” value in the data set with fasting blood glucose is 4 to 5 mM.
